{"source": "patent US7807624B2", "about": "“Methods and compositions for promoting attachment of cells of endothelial cell lineage to medical devices” (Affinergy, Inc., priority 2006, dated 2010)", "key": {"[1]": {"test_system": "cells of endothelial cell lineage", "procedure": "In this illustrative example, cells of endothelial cell lineage used as target cells for the selection and screening process were human adipose-derived stem cells (“ADAS cells”). […] Fibroblasts (16 Lu fibroblast cell line) were used as non-target cells in the selection and screening process.\nThese peptides were tested in a variety of assay formats for binding specificity against a panel of cells and cell lines to compare binding to cells of endothelial cell lineage (e.g., human umbilical vein endothelial cells, human coronary artery endothelial cells, porcine coronary artery endothelial cells, and human endothelial progenitor cells) versus binding to cells of an origin other than endothelial cell lineage (e.g., human artery smooth muscle cells, porcine artery smooth muscle cells, platelets, and other mammalian cell lines)."}, "[2]": {"experiment": "Phage display selection and ELISA-type peptide binding to teflon", "description": "(§1) For example, a variety of different phage display libraries were screened for peptides that bind to a selected target substrate (e.g., a substrate selected to find a binding domain useful in the present invention). The substrate was either bound to or placed in (depending on the selected substrate) the wells of a 96 well microtiter plate. Nonspecific binding sites on the well surface of the polystyrene microtiter plate were blocked with a buffer containing 1% bovine serum albumin after overnight incubation at 4° C. The wells were then washed 5 times with a buffer containing phosphate buffered saline with Tween™ 20 (“PBS-T”). […] To detect phage that specifically bind to the selected substrate, enzyme-linked immunosorbent (ELISA-type) assays were performed using an anti-phage antibody conjugated to a detector molecule, followed by the detection and quantitation of the amount of detector molecule bound in the assay.\n(§2) Relative binding strengths of the peptides were determined by testing serial dilutions of the peptide for binding to the selected substrate (as compared to a substrate used as a negative control; i.e. a substrate other than the selected substrate). Plotting the absorbance observed across the concentration range for each peptide sequence yielded a binding curve and rough dissociation constant (“KD”) of the peptides to its target substrate. […]"}, "[3]": {"experiment": "Phage display selection and ELISA-type peptide binding to polystyrene", "description": "For example, a variety of different phage display libraries were screened for peptides that bind to a selected target substrate (e.g., a substrate selected to find a binding domain useful in the present invention). The substrate was either bound to or placed in (depending on the selected substrate) the wells of a 96 well microtiter plate. Nonspecific binding sites on the well surface of the polystyrene microtiter plate were blocked with a buffer containing 1% bovine serum albumin after overnight incubation at 4° C. The wells were then washed 5 times with a buffer containing phosphate buffered saline with Tween™ 20 (“PBS-T”). Each library was diluted in PBS-T and added at a concentration of 10^10 pfu/ml in a total volume of 100 μl. After 3 hour of incubation at room temperature with shaking at 50 rpm, unbound phage were removed by multiple washes with PBS-T. Bound phage were recovered by denaturation with 0.1 M glycine buffer, pH2.2. The eluted phage were neutralized with phosphate buffer, and then added to E. coli cells in growth media. The cell and phage-containing media was cultured by incubation overnight at 37° C. in a shaker at 200 rpm. Phage-containing supernatant was harvested from the culture after centrifuging the culture. […] To detect phage that specifically bind to the selected substrate, enzyme-linked immunosorbent (ELISA-type) assays were performed using an anti-phage antibody conjugated to a detector molecule, followed by the detection and quantitation of the amount of detector molecule bound in the assay.\nas §2"}, "[4]": {"experiment": "Phage display selection and ELISA-type peptide binding to polyurethane", "description": "as §1, §2"}, "[5]": {"experiment": "Peptide binding to titanium beads (phage selection, ELISA-type dilution series)", "method": "As a specific illustrative example, titanium (in percent: Ti6Al4V) beads of approximately 5/32 of an inch diameter were washed with 70% ethanol, 40% nitric acid, distilled water, 70% ethanol, and acetone to remove any surface contaminants. One titanium bead was placed per well of 96-well polypropylene plate. Nonspecific binding sites on the titanium and the surface of the polypropylene were blocked with 1% bovine serum albumin (BSA) in PBS. The plate was incubated for 1 hour at room temperature with shaking at 50 rpm. The wells were then washed 5 times with 300 μl of PBS. Each library was diluted in PBS+1% BSA and was added at a concentration of 10^10 pfu/ml in a total volume of 250 μl. […]\nas §2\nAs a specific example, titanium beads were blocked with 1% BSA in PBS for 30 minutes at room temperature. […] Beads were washed two times with PBS-T. PNPP (p-nitrophenyl phosphate) was used to develop the assay, and the absorbance was recorded at 405 nm. […]"}}, "note": "Where a SMILES comes first, the peptide text is derived from it.", "data": [{"compound": "CC(C)C[C@H](NC(=O)[C@H](C)NC(=O)[C@H](C)NC(=O)[C@H](CO)NC(=O)[C@@H]1CCCN1C(=O)[C@H](CCCNC(=N)N)NC(=O)[C@H](CC(C)C)NC(=O)[C@H](CC(C)C)NC(=O)[C@H](CO)NC(=O)[C@@H](NC(=O)[C@H](Cc1c[nH]cn1)NC(=O)[C@H](CCC(N)=O)NC(=O)[C@H](CS)NC(=O)[C@H](CO)NC(=O)[C@H](CO)NC(=O)[C@@H](N)CO)C(C)C)C(=O)NCC(=O)N1CCC[C@H]1C(=O)N[C@@H](CC(=O)O)C(=O)N[C@@H](CC(N)=O)C(=O)N[C@@H](CS)C(=O)N[C@@H](CS)C(=O)N[C@@H](CO)C(=O)N[C@@H](CCCNC(=N)N)C(=O)NCC(=O)N[C@@H](CO)C(=O)N[C@@H](CO)C(=O)NCC(=O)N[C@@H](CCCCN)C(=O)O", "note": "[SEQ ID NO:95] (H-SSSCQHVSLLRPSAALGPDNCCSRGSSGK-OH; N-terminus and C-terminus assumed)", "values": [{"measurement": "EC50", "setting": "[1]", "value": "< 10", "unit": "µM"}]}, {"compound": "CC(C)C[C@H](NC(=O)[C@H](C)NC(=O)[C@H](C)NC(=O)[C@H](CO)NC(=O)[C@@H]1CCCN1C(=O)[C@H](CCCNC(=N)N)NC(=O)[C@H](CC(C)C)NC(=O)[C@H](CC(C)C)NC(=O)[C@H](CO)NC(=O)[C@@H](NC(=O)[C@H](Cc1c[nH]cn1)NC(=O)[C@H](CCC(N)=O)NC(=O)[C@H](CS)NC(=O)[C@H](CO)NC(=O)[C@H](CO)NC(=O)[C@@H](N)CO)C(C)C)C(=O)NCC(=O)N1CCC[C@H]1C(=O)N[C@@H](CC(=O)O)C(=O)N[C@@H](CC(N)=O)C(=O)N[C@@H](CS)C(=O)N[C@@H](CO)C(=O)N[C@@H](CCCNC(=N)N)C(=O)NCC(=O)N[C@@H](CO)C(=O)N[C@@H](CO)C(=O)NCC(=O)N[C@@H](CCCCN)C(=O)O", "note": "[SEQ ID NO:96] (H-SSSCQHVSLLRPSAALGPDNCSRGSSGK-OH; N-terminus and C-terminus assumed)", "values": [{"measurement": "EC50", "setting": "[1]", "value": "< 10", "unit": "µM"}]}, {"compound": "CIKYPFLYCCLLSLFLFS [SEQ ID NO:56]", "values": [{"measurement": "binding specificity for teflon", "setting": "[2]", "value": "specifically bind to teflon"}]}, {"compound": "CWSRFRLFMLFCMFYLVS [SEQ ID NO:55]", "values": [{"measurement": "binding specificity for teflon", "setting": "[2]", "value": "specifically bind to teflon"}]}, {"compound": "FFGFDVYDMSNAL [SEQ ID NO:19]", "values": [{"measurement": "binding specificity for polystyrene", "setting": "[3]", "value": "substantially retain binding specificity for polystyrene"}]}, {"compound": "FFPSSWYSHLGVL [SEQ ID NO:18]", "values": [{"measurement": "binding specificity for polystyrene", "setting": "[3]", "value": "substantially retain binding specificity for polystyrene"}]}, {"compound": "FSYSVSYAHPEGL [SEQ ID NO:21]", "values": [{"measurement": "binding specificity for polystyrene", "setting": "[3]", "value": "substantially retain binding specificity for polystyrene"}]}, {"compound": "SCYVNGHNSVWWVFWGVS (SCYVNGHNSVWVVVFWGVS) [SEQ ID NO:23]", "values": [{"measurement": "binding specificity for polyurethane", "setting": "[4]", "value": "specifically binds to polyurethane"}]}, {"compound": "SDKSHKHWYSYESKYGGS [SEQ ID NO:74]", "values": [{"measurement": "binding specificity for titanium", "setting": "[5]", "value": "substantially retained binding specificity"}, {"measurement": "reduction in binding", "setting": "[5]; as compared to SEQ ID NO:73 (two cysteines substituted by serine)", "value": 10, "unit": "fold"}]}]}
